According to article PMC9796023, “In vivo and in vitro characterization of GL0034, a novel long‐acting glucagon‐like peptide‐1 receptor agonist” (Diabetes, Obesity & Metabolism, 2022):
Where no end group is shown, it is not given here. [ ]: non-standard residue; d: D form. Aib = CC(C)(N)C(=O)O

Key:
[1] = target: T1, human SNAP-GLP-1R (HEK293-SNAP-GLP-1R cells) (Homo sapiens, UniProt P43220); assay: Time-resolved FRET kinetic competition binding vs exendin(9-39)-FITC
T1 construct: expressed in transfected cells
Description: (§1) For in vitro data, the average of within‐assay replicates was counted as one biological replicate. For kinetic binding assays, rate constants for association and dissociation of the unlabelled ligands were calculated using the “kinetics of competition binding” algorithm in PRISM 8 (GraphPad Software), using values for exendin(9‐39)‐FITC determined in the same experiment. Functional concentration response data were fitted using three‐parameter logistic fitting (PRISM 8), with constraints applied where appropriate. Pharmacokinetic analysis was performed using Phoenix® Win‐Nonlin® (Version 8.0). Statistical comparisons were performed using Student's t‐test or one‐way ANOVA, as appropriate. Paired or matched analyses were performed where permitted by the experimental design. Specific post hoc tests are indicated in the legends. Statistical significance was assigned where P < 0.05. Data are represented as mean ± standard error of the mean (SEM) throughout, with individual replicates indicated where possible.

[2] = target: T1, human SNAP-GLP-1R (HEK293-SNAP-GLP-1R cells); assay: cAMP assay (HTRF) in HEK293-SNAP-GLP-1R cells; assay type: cell-based
Description: HEK293‐SNAP‐GLP‐1R cells were stimulated with agonist for 30 minutes at 37°C, either in serum‐free media (SFM) or SFM supplemented with 2% human serum albumin (HSA; Sigma Aldrich, Poole, UK). cAMP was determined at the end of the incubation period by homogenous time‐resolved fluorescence (HTRF; cAMP Dynamic 2 kit; Cisbio) using a Spectramax i3x plate reader (Molecular Devices, Wokingham, UK).
For in vitro data, the average of within‐assay replicates was counted as one biological replicate. For kinetic binding assays, rate constants for association and dissociation of the unlabelled ligands were calculated using the “kinetics of competition binding” algorithm in PRISM 8 (GraphPad Software), using values for exendin(9‐39)‐FITC determined in the same experiment. Functional concentration response data were fitted using three‐parameter logistic fitting (PRISM 8), with constraints applied where appropriate. Pharmacokinetic analysis was performed using Phoenix® Win‐Nonlin® (Version 8.0). Statistical comparisons were performed using Student's t‐test or one‐way ANOVA, as appropriate. Paired or matched analyses were performed where permitted by the experimental design. Specific post hoc tests are indicated in the legends. Statistical significance was assigned where P < 0.05. […]

[3] = target: T2, GLP-1R (PathHunter CHO-K1-βarr2-EA-GLP-1R cells) (Homo sapiens, UniProt P43220); assay: PathHunter β-arrestin-2 recruitment assay; assay type: cell-based
T2 construct: host or cells: CHO-K1 (PathHunter, co-expressing β-arrestin-2-EA)
Description: PathHunter CHO‐K1‐βarr2‐EA‐GLP‐1R cells were stimulated with agonist for 30 minutes at 37°C in Ham's F12 medium without FBS. At the end of the incubation period, cells were lysed by addition of PathHunter detection reagents and luminescent signal was subsequently recorded from each well.

[4] = Plasma pharmacokinetic study in CD-1 mice; assay type: in vivo, mouse; conditions: male CD-1 mice, single s.c. 1 mg/kg, LC-MS/MS, n = 5 per timepoint
Description: A plasma pharmacokinetic study of GL0034 was performed in male CD‐1 Mice (6‐9 weeks of age; 30‐50 g body weight) procured from the Laboratory Animal Resources Department of Sun Pharma Advanced Research Company Ltd (www.sparc.life, a subsidiary of Sun Pharma Industries Ltd.). For full details see Supplementary Methods.
as §1
Animals (n=45) were procured from Laboratory Animal Resources Dept. of Sun Pharma Advanced Research Company Ltd. (www.sparc.life, a subsidiary of Sun Pharma Industries Ltd.). Animals were acclimatized for one day. On day 0, each animal was weighed. Animals were divided into 9 groups, each group containing 5 male animals (one group representing one time-point). All the animals were injected subcutaneously at a dose of 1 mg/kg (dose volume: 10 ml/kg) using 26½ gauge needle attached to an appropriately graduated syringe. At 1, 2, 4, 8, 12, 24, 48, 72 and 96 hours after injection, ~500 µL of blood was collected from mice by retro-orbital plexus puncture using capillary micro-centrifuge tubes containing anticoagulant (15 µL of 10% K2EDTA per tube). Plasma was separated from the collected blood samples by centrifugation at ~3300 rpm (1985 g) for 10 min at 4°C ± 2°C. GL0034 concentrations were estimated using liquid chromatography with tandem mass spectrometry (LCMS-MS). Lower limit of quantitation (LLOQ) for GL0034 was 50 ng/mL.

[5] = system: HFHS diet-fed C57BL6/J mice; assay: Study in high-fat, high-sucrose diet-fed mice; assay type: in vivo, mouse; conditions: end of study, n = 3
Description: Male C57BL6/J mice were purchased from Charles River (UK). The mice were housed in a pathogen‐free facility with a 12‐hour light/12‐hour dark cycle. From the age of 8 weeks they were put on a 58 kcal % fat and sucrose diet (D12331; Research Diets Inc., New Brunswick, New Jersey) for 8 weeks to induce obesity and glucose intolerance. […] Body weight was monitored at regular intervals. For glucose tolerance testing, mice were fasted overnight (total 16 hours) and given free access to water. At 9:00 AM, glucose (3 g/kg body weight) was administered via intraperitoneal injection or oral gavage. Blood was sampled from the tail vein at 0, 5, 15, 30, 60 and 90 minutes after glucose administration. Blood glucose was measured with an automatic glucometer (Accuchek; Roche, Burgess Hill, UK). To quantify circulating insulin, 10 μL blood was collected from the tail vein into heparin‐coated tubes (Sarstedt, Beaumont Leys, UK). Plasma was separated by sedimentation at 10 000g for 10 minutes at 4°C. Plasma insulin levels were measured in 5‐μL aliquots by ELISA kits from Crystal Chem (Elk Grove Village, Illinois). At the end of the study, pancreata were isolated and processed for immunohistochemistry.

[6] = target: human serum albumin (human) (UniProt P02768)
[7] = target: human SNAP-GLP-1R (glucagon-like peptide-1 receptor) on HEK293 cells (human, UniProt P43220 24-463, SNAP tag labelled with SNAP-Lumi4-Tb); assay: cell-based or functional assay
human SNAP-GLP-1R (glucagon-like peptide-1 receptor) on HEK293 cells, sequence (P43220 24-463): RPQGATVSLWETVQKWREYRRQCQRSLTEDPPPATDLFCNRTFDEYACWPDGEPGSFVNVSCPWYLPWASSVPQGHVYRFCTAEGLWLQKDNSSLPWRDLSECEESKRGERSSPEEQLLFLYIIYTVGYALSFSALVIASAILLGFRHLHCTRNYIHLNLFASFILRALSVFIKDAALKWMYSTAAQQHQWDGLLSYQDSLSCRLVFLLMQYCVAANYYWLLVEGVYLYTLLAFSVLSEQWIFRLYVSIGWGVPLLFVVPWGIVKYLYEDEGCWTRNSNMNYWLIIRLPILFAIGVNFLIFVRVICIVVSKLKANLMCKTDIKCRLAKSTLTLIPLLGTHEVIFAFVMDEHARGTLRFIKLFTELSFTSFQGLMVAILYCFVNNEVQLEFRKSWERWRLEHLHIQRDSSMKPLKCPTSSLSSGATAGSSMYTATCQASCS

T1 sequence (P43220 24-463): as above
T2 sequence (P43220 24-463): as above

CC[C@H](C)[C@H](NC(=O)[C@H](Cc1ccccc1)NC(=O)[C@H](CCC(=O)O)NC(=O)[C@H](CCCCNC(=O)COCCOCCNC(=O)C(C)(C)NC(=O)CC[C@H](NC(=O)CCCCCCCCCCCCCCCCC(=O)O)C(=O)O)NC(=O)[C@H](C)NC(=O)[C@H](C)NC(=O)[C@H](CCC(N)=O)NC(=O)CNC(=O)[C@H](CCC(=O)O)NC(=O)[C@H](CC(C)C)NC(=O)[C@H](Cc1ccc(O)cc1)NC(=O)[C@H](CO)NC(=O)[C@H](CO)NC(=O)[C@@H](NC(=O)[C@H](CC(=O)O)NC(=O)[C@H](CO)NC(=O)[C@@H](NC(=O)[C@H](Cc1ccccc1)NC(=O)[C@@H](NC(=O)CNC(=O)[C@H](CCC(=O)O)NC(=O)C(C)(C)NC(=O)[C@@H](N)Cc1c[nH]cn1)[C@@H](C)O)[C@@H](C)O)C(C)C)C(=O)N[C@@H](C)C(=O)N[C@@H](Cc1c[nH]c2ccccc12)C(=O)N[C@@H](CC(C)C)C(=O)N[C@H](C(=O)N[C@@H](CCCNC(=N)N)C(=O)NCC(=O)N[C@@H](CCCNC(=N)N)C(=O)NCC(=O)N[C@@H](CC(C)C)C(=O)O)C(C)C [GL0034]
Kd [1]: 25.1 nM | koff ([1]; HEK293-SNAP-GLP-1R, 37°C, competition with 10 nM exendin(9-39)-FITC, estimate ± SEM, n = 4): 0.00367 s⁻¹ | Emax ([2]; 30 min, 37°C, estimate ± SEM, n = 5): 97 ± 2% | EC50 ([2]; read-out: cAMP LogEC50 (converted)): 0.631 nM | Emax ([3]; 30 min, 37°C, Ham's F12 without FBS, estimate ± SEM, n = 5): 102 ± 1% | EC50 ([3]; read-out: βarr2 LogEC50 (converted)): 79.4 nM | Kel [4]: 0.0906 h⁻¹ | Cmax ([4]; mouse, sc): 921 nM | Tmax ([4]; mouse, sc): 4 h | half-life ([4]; mouse, sc, read-out: t1/2 (plasma half-life) (converted)): 459 min | Plasma amylase levels [5]: no difference

GL0034 (peptide)
∆pEC50 of GLP-1R cAMP signalling potency with and without 2% HSA (HEK293-SNAP-GLP-1R cells) [6]: 2.1

CC[C@H](C)[C@H](NC(=O)[C@H](Cc1ccccc1)NC(=O)[C@H](CCC(=O)O)NC(=O)[C@H](CCCCNC(=O)COCCOCCNC(=O)COCCOCCNC(=O)CC[C@H](NC(=O)CCCCCCCCCCCCCCCCC(=O)O)C(=O)O)NC(=O)[C@H](C)NC(=O)[C@H](C)NC(=O)[C@H](CCC(N)=O)NC(=O)CNC(=O)[C@H](CCC(=O)O)NC(=O)[C@H](CC(C)C)NC(=O)[C@H](Cc1ccc(O)cc1)NC(=O)[C@H](CO)NC(=O)[C@H](CO)NC(=O)[C@@H](NC(=O)[C@H](CC(=O)O)NC(=O)[C@H](CO)NC(=O)[C@@H](NC(=O)[C@H](Cc1ccccc1)NC(=O)[C@@H](NC(=O)CNC(=O)[C@H](CCC(=O)O)NC(=O)C(C)(C)NC(=O)[C@@H](N)Cc1cnc[nH]1)[C@@H](C)O)[C@@H](C)O)C(C)C)C(=O)N[C@@H](C)C(=O)N[C@@H](Cc1c[nH]c2ccccc12)C(=O)N[C@@H](CC(C)C)C(=O)N[C@H](C(=O)N[C@@H](CCCNC(=N)N)C(=O)NCC(=O)N[C@@H](CCCNC(=N)N)C(=O)NCC(=O)O)C(C)C [Semaglutide, reference compound]
Plasma amylase levels [5]: no difference

B1: GL0034 (peptide)
chain: H[Aib]EGTFTSDVSSYLEGQAAKEFIAWLVRGRGL
modifications: not fully specified (residue 20); also: K20 linker includes Aib, structure not given here
GLP-1R endocytosis (high content imaging), HEK293-SNAP-GLP-1R cells, LogEC50 (M) [7]: -9.2 M (log) | cAMP production, HEK293-SNAP-GLP-1R cells, 30 minutes, LogEC50 (M) [7]: -9.2 M (log)
